Values quoted from earlier work, collected in patent publication US20090030075A1, “Remedy for and Method of Treating Ischemic Cerebral Stroke” (priority 2005, published 2009).

Test system: cerebral infarction lesion
Settings: FR139317 used together with SUN9216

CC(C)C[C@H](NC(=O)N1CCCCCC1)C(=O)N[C@H](Cc1cn(C)c2ccccc12)C(=O)N[C@H](Cc1ccccn1)C(=O)O [FR139317]
activity of inhibiting development of a cerebral infarction lesion: this effect disappears
